Assay results as given in patent US20230226002A1, “RETINAL BIOA[…] SYNTHETIC VERY-LONG-CHAIN POLYUNSATURATED FATTY ACIDS” (University of Utah Research Foundation, priority 2020, published 2023).

Experiments:
[1] = Single dose gavage bioavailability, GC-MS of serum and tissues; type: in vivo, WT mice (C57BL/6J); details: single oral gavage dose of 6 mg, mice
Experimental: WT mice (C57BL/6J) mice have been used in this study for single dose gavage, repeated dose gavage and optomotry experiments. VLC-PUFA liposomes have been prepared using liposome kit (0.05%) with an addition of alpha-tocopherol (VE) (0.025%) to prevent oxidation. Three month old WT mice were gavage fed with VLC-PUFA liposomes. A dose of 6 mg/mice/day was used, half the dosage used for DHA by previous studies (Jiang, et al. (2009) The Journal of Nutritional Biochemistry 20: 735-741; Hacioglui, et al. (2007) Neurobiology of Learning and Memory 87: 159-165). The mice were gavage fed and sacrificed at time intervals (n=4/time point) of 2, 4, 8, and 24 hr to harvest the blood and other tissues. Eyes were dissected under the microscope to separate retina from RPE. One pair of retina/mouse have been used for lipid extraction as described in the procedure elsewhere. Blood was centrifuged for 5 min at 7500 rpm to separate serum from RBC. Serum, RBC, liver, retina and RPE have been used for lipid extractions and GC-MS analysis.
(§1) Serum, RBCs, orbital adipose tissue, and retina punches, were extracted using the procedure previously adopted (Liu, et al. (2013) J. Chromatogr. A 1307: 191-200). The samples and internal standards (50 μg of tridecanoic acid and 1.15 μg of hentriacontanoic acid) were added in 2 ml stainless steel vials and then homogenized with 0.7 ml silica beads and 1 ml hexane-isopropanol (3:2 v:v) by a Mini Bead Beater-16 (BioSpec Products Inc., Bartlesville, Okla., USA) and a Sonic Dismembrator Model 100 (Fisher Scientific, Pittsburgh, Pa., USA). The homogenized samples were bath sonicated for 5 min in an ice water bath. After centrifugation at 10,000 rpm for 5 min, the extracted solution supernatant was transferred to a clean vial and then dried under a stream of nitrogen. The dried film was dissolved in 200 μl hexane, and 2 ml of 4% HCl in methanol was added. The tubes were flushed with argon and incubated at 80° C. for 4 hr to form FAMEs (Liu, et al. (2013) J. Chromatogr. A 1307: 191-200) and then allowed to cool. The FAME mixture was extracted three times with 1 ml distilled water and 2 ml hexane. The hexane layers were combined and dried under nitrogen gas.
(§2) Silica gel, glass-encased, solid-phase extraction cartridges were subsequently used to clean the FAME extracts. The cartridge was activated with 6 ml of hexane before loading samples. The crude FAME extract was dissolved in 200 μl of hexane and loaded onto the activated cartridge. The cartridge was washed with 6 ml hexane, and the eluate was discarded. FAMEs were eluted from the cartridge with 5 ml hexane:ether (4:1), and the eluate was evaporated under nitrogen gas. The dry film was dissolved in 200 μl of hexane and centrifuged for 3 min at 14,000 rpm to remove particles prior to GC-MS analysis. 1 μl of sample was injected into the GC-MS instrument for LC-PUFAs analysis. For VLC-PUFAs analysis, the sample was dried with nitrogen again and re-dissolved in 20 μl of n-nonane, and 5 μl samples were injected into the GC-MS instrument.
(§3) The Thermo Trace GC-DSQ II system (ThermoFisher Scientific, Waltham, Mass., USA) consists of an automatic sample injector (AS 3000), gas chromatograph (GC), single quadrupole mass detector, and an analytical workstation. The chromatographic separation was carried out with an Rxi-5MS coated 5% diphenyl/95% dimethyl polysiloxane capillary column (30 m×0.25 mm i.d, 0.25 μm film thickness) (Restek, Bellefonte, Pa., USA). Two methods (A and B) were used for detection and quantitation of LC-PUFAs and VLC-PUFAs, respectively as previously published (Liu, et al. (2013) J. Chromatogr. A 1307: 191-200). Bovine retina VLC-PUFAs were extracted and employed as VLC-PUFA standards to establish retention times because commercial standards are not available, and identification of each VLC-PUFA in retinal samples was achieved as described in prior work (Liu, et al. (2010) J. Lipid Res. 51: 3217-3229).

[2] = π-A isotherms of VLC-PUFA in DSPC lipid monolayers (Langmuir trough); type: physicochemical
Experimental: Pressure-area (π-A) isotherms were collected using a Langmuir trough (KSV, Helsinki, Finland). PBS was used as the subphase for all isotherms. Stock solutions of pure VLC-PUFA, pure DSPC, and DSPC containing 0.1 mol %, 1 mol %, or 10 mol % VLC-PUFA were spread at the air/water interface and allowed to equilibrate for 15 minutes prior to compression to allow for solvent evaporation. The monolayers were compressed at a rate of 2 mm/min at 22±1° C. and repeated in triplicate. The averaged isotherms were smoothed using a 100-point rolling average. The MMA of mixture of VLC-PUFA in DSPC layers was calculated by the formula: MMADSPC+VLC-PUFA=MMADSPCXDSPC+MMAVLC-PUFAXVLC-PUFA, where the X is mol fraction of DSPC and VLC-PUFA in membrane.
After developing an efficient synthetic route to producing VLC-PUFAs, their previously unexplored biophysical properties were studied, including their impact on membrane packing and compressibility as well their influence on membrane dynamics, particularly lipid flip-flop. […] The changes imparted by VLC-PUFAs on lipid packing and the compression moduli of model membranes were evaluated from π-A isotherms of 32:6 n-3 in 1,2-distearoyl-sn-3-glycero-phosphocholine (DSPC) lipid monolayers (FIG. 2A). […]

[3] = Repeated dose gavage for 15 days, GC-MS of serum and tissues; type: in vivo, WT mice (C57BL/6J); details: gavage 15 days
Experimental: Repeated dose gavage. VLC-PUFA liposomes were gavaged to three month old WT mice for 15 days. The mice were divided into three groups (n=4/group), Group 1 was fed with liposomes prepared with PC and alpha-tocopherol, Group 2 was fed with liposomes prepared with PC, VE, and 1 mg VLC-PUFAs and Group 3 was fed with liposomes with PC, VE and 2 mg VLC-PUFAs. Mice were sacrificed at the end of the experiment and organs were harvested, extracted for lipids and analyzed by GC-MS using the procedure mentioned elsewhere.
as §1, §2, §3

[4] = test system: WT mice (C57BL/6J); experiment: Optomotry/Visual behavior test after repeated dose gavage; type: in vivo; details: 2 mg/day for 15 days by gavage, compared to controls
Experimental: Optomotry/Visual behavior test. Repeated dose gavage fed mice were tested for visual behavior to observe the effect of VLC-PUFA on vision. Since the optomotry tests could be manipulative, all the analysts were double blinded. 3 month-old mice were employed to test spatial visual acuity using the OptoMotry system (Cerebral Mechanics, Lethbridg, AB, Canada). Briefly, individual mice were placed on a platform centered in a quad-square formed by four inward facing computer screens, and their movements were monitored by an overhead video camera. Photopic measurements were conducted under illuminance of around 165 lux. […] During the detection of spatial frequency threshold, the rotation speed and contrast were kept at 12°/s, and 100%, respectively, while the frequency was kept at 0.19 cycle/degree in the examination of contrast sensitivity. All experiments had concurrent control mice fed with placebo chow.

[5] = DSPC flip-flop kinetics by sum-frequency vibrational spectroscopy; type: physicochemical; details: 0.1 mol % VLC-PUFA in DSPC vs pure DSPC, about 46° C.
Experimental: Planar supported lipid bilayers (PSLBs) used in this study were prepared using the Langmuir-Blodgett/Langmuir-Schaefer (LB/LS) method, the details of which are presented elsewhere (Liu and Conboy (2009) Vib. Spectrosc. 50: 106-115). Briefly, the cleaned SiO2 prisms were submerged in PBS. Afterwards, 0.1 mol % VLC-PUFA in DSPCd70 was spread over the air/water interface and allowed to thermally equilibrate for 15 minutes. Afterwards, the monolayer was compressed to 30 mN/m at a rate of 4 mm/min, and the surface pressure was allowed to stabilize for another 5 minutes. The prism was then withdrawn at a rate of 3 mm/min to deposit the LB layer. The subphase was removed, and the trough was cleaned using methanol, isopropanol, and water. […]
Following bilayer assembly, the flow-cell was flushed with PBS in D2O to eliminate any spectral interference from the 0-H bands from water. […] The flip-flop rates of DSPC were determined from the decay of methyl symmetric stretch mode (CH3 vs) for an asymmetrically prepared VLC-PUFA:DSPC membrane in which on leaflet contained dueterated DSPCd70 and DSPC. As DSPC lipid exchange between leaflets, the intensity of the CH3 vs decreases over time due to flip-flop and the rate of exchange is determined by fitting the data to ICH3(t)=Imin+Imaxe^−4kt, the results of which are presented in FIG. 2B. The half-lives of flip-flop were calculated using […]

[6] = 1 and 2 mg/day groups vs control mice (undetectable)
[7] = both 1 and 2 mg/day groups vs 0 mg/day controls, mice

## CC/C=C\C/C=C\C/C=C\C/C=C\C/C=C\C/C=C\CCCCCCCCCCCCC(=O)O [32:6 n-3, (14Z,17Z,20Z,23Z,26Z,29Z)-dotriaconta-14,17,20,23,26,29-hexaenoic acid]
[1]; 4-8 hr after gavage
  32:6 n-3 level in RPE: significant increase
  32:6 n-3 level in retina: significant increase
[1]; serum
  time until serum VLC-PUFAs became detectable: ≤ 2 h
[1]; serum, over the next 24 hr
  serum VLC-PUFA concentration course after the first detection: reached a lower steady-state concentration
[1]; throughout the 24 hr-period
  VLC-PUFAs in brain: undetectable
  VLC-PUFAs in liver: undetectable
  VLC-PUFAs in red blood cell (RBC) membranes: undetectable
[2]; 0.1 mol % VLC-PUFA in DSPC membranes
  elasticity of DSPC membranes: high elasticity
[2]; 0.1 mol %, 1 mol % and 10 mol % VLC-PUFA in DSPC monolayer, PBS pH 7.4 subphase, 22° C.
  shift of π-A isotherm / mean molecular area (MMA) of the lipids: shifted the π-A isotherm to higher MMAs
[3]; [6]
  RBC VLC-PUFAs: significant increase
  serum VLC-PUFAs: significant increase
[3]; 1 and 2 mg/day, mice
  VLC-PUFAs in brain: no VLC-PUFAs were detectable
  VLC-PUFAs in liver: detectable levels of VLC-PUFAs only in the 2 mg/day group
[3]; [7]
  increase of VLC-PUFA levels in RPE: 7 fold
  increase of VLC-PUFA levels in retina: 2 fold
[3]; treatment groups compared to the control group, mice
  toxic symptoms or behavioral changes: toxic symptoms or behavioral changes were observed
[4]
  contrast sensitivity (rod function): improved significantly
  visual acuity (cone function): improved significantly
[5]
  increase of the DSPC flip-flop rate: 4 fold
